Laboratory results as given in US6887864B2, “Azepane derivatives” (Hoffmann-La Roche Inc., priority 2002, dated 2005).

Key:
[1] = mouse plasma stability test; assay type: in vitro ADME; settings: 10 μmol/1, 37° C.
Protocol: After defined periods of time with respect to the addition of said compounds to the mouse-plasma (t=0, 0.5, 1, 2, 4 h ), equal portions were isolated from the plasma, separated with HPLC and analyzed by mass spectrometry. During all these steps, the temperature was kept constant at 37° C. In the following table, the plasma stability of compounds according to the invention was compared to one of the selected compounds from EP 0 663 393 A1.

AKT [2] = target: T1, AKT (Homo sapiens, UniProt P31749); assay: ELISA-based AKT kinase assay; assay type: biochemical; parameters: made in house; host or cells: Sf9 insect cells; settings: AKT expressed in Sf9 cells, substrate peptide 300 nM, ATP 5 μM, 30 min at room temperature
From the text: In order to study AKT inhibitory activity of the compounds according to the invention, an ELISA-based assay was developed for AKT. The assay design utilized a N-terminally biotinylated substrate peptide. When this substrate was phosphorylated by the AKT kinase, the product was recognized by a substrate/sequence-specific antibody known to bind to particular phosphorylated serine residues. For this assay, a Biotin-[…] peptide and anti-phospho-GSK-3α Ser21 antibody (rabbit) from Cell Signaling Technology/New England Biolabs were used.
The enzymatic reactions were carried out with AKT expressed in Sf9 cells (100 ng/reaction), substrate peptide (300 nM) and ATP (5 μM) in the absence or presence of different concentrations of compounds dissolved in DMSO. The final concentration of DMSO was 1%. The mixtures were reacted for 30 min at room temperature in assay buffer containing 50 mM Tris-HCl, 10 mM MgCl2, 1.0 mM DTT, 2 mM Na3VO4, pH 7.5, in a final volume of 40 μl. The reaction was stopped with addition of 10 μl 0,12 M EDTA/0,12 M EGTA. The reaction mixture was transferred to a SA-coated micro-titer-plate. After 1 h incubation, the plate was washed with PBS using a 384-well Embla plate washer. Anti-phospho-GSK-3α Ser21 antibody was added. After 1 h incubation the plate was washed with PBS and bound antibody was detected by addition of polyclonal<Rabbit>S-IgG-POD-conjugate from Roche Diagnostics GmbH. After 1 h incubation, the plate was washed with PBS. Amount of phosphorylated peptide was measured by an enzyme-catalyzed color reaction (ABTS conversion) and photometrical measurement at 405 nm.
Calculation of IC50 values were performed with ActivityBase.

AKT [3] = target: T1, AKT; assay: cellular AKT activity assay (GSK-3 Ser21/Ser9 phosphorylation in LNCaP cells, immunoblot); assay type: cell-based; parameters: endogenous in cells; host or cells: LNCaP prostate cancer cells; settings: 1 h treatment, inhibitors 6 μM to 187 nM, read-out: values found for effect on AKT activity in living cells (level of GSK-3-Ser21/Ser9 phosphorylation)
From the text: Additionally to Example 3 the acticity of compounds according to the invention was studied on a cellular AKT activity assay as follows:
Prostate cancer cell line LNCaP was passaged in RPMI 1640 with 10% fetal calf serum, 50 units/ml penicillin, and 50 units/ml streptomycin. LNCaP cells were characterized by a constitutive activation of AKT. Constitutive active AKT phosphorylates glycogen synthase kinase-3 (GSK-3) at Ser21/Ser9 in LNCaP cells. To measure the effect of compounds on the activity of AKT in living cells, LNCaP cells were treated with various concentrations of inhibitors (6 μM to 187 nM). After 1 h, the cells were harvested in lysis solution containing 50 mM HEPES (pH 7.0), 150 mM NaCl, 1.5 mM MgCl2 ,1 mM EGTA, 100 mM NaF, 10 mM sodium PPi, 10% glycerol, 1% Triton X-100, 1 mM Na3 […], […], 5 mM iodoacetic acid, and […]. The proteins from whole cell extracts were electrophoresed on 7.5% SDS/PAGE gels. Afterwards, proteins were transferred onto Nitrocellulose filter and immunoblotting using the enhanced chemiluminescence (ECL) detection system (Amersham Pharmacia) was performed. The level of GSK-3-Ser21/Ser9 phosphorylation was thereby determined using polyclonal anti-P-GSK-3-Ser-21/9 antibody (rabbit; New England Biolabs).

T1 sequence (P31749 whole entry): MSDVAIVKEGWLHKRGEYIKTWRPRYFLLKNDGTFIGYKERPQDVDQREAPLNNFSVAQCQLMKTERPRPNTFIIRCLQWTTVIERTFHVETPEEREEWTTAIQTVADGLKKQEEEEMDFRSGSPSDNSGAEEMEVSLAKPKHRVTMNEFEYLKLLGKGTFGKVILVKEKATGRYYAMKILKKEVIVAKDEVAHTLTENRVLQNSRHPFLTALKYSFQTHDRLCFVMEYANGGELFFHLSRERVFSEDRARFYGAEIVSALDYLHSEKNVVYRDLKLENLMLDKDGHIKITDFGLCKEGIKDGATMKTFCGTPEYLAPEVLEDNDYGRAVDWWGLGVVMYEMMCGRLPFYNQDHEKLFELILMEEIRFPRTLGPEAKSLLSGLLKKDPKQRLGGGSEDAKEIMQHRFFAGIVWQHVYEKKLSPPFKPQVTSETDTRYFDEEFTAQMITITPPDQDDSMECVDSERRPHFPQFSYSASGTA

| Compound | melting point [°C] | Decrease [%] (after 4 h) [1] | IC50 (AKT [2]) [nM] | IC50 (AKT [3]) [nM] |
| --- | --- | --- | --- | --- |
| Cc1ccc2cc(O)c(C(=O)c3ccc(C(=O)N[C@@H]4CCCNC[C@H]4NC(=O)c4ccncc4)cc3)c(F)c2n1.Cl | 255 to 260 | – | – | – |
| CC(C)(C)c1ccc2cc(O)c(C(=O)c3ccc(C(=O)N[C@@H]4CCCNC[C@H]4NC(=O)c4ccncc4)cc3)c(F)c2n1.Cl | 215 | – | – | – |
| Cl.O=C(N[C@@H]1CCCNC[C@H]1NC(=O)c1ccncc1)c1ccc(C(=O)c2c(O)ccc3ncccc23)cc1 | 215 to 220 | – | – | – |
| CN(C)c1ccc(O)c(C(=O)c2ccc(C(=O)N[C@@H]3CCCNC[C@H]3NC(=O)c3ccncc3)cc2)c1.Cl | 230 to 245 | – | – | – |
| Cl.O=C(N[C@@H]1CCCNC[C@H]1NC(=O)c1ccncc1)c1ccc(C(=O)c2cc(N3CCCCC3)ccc2O)cc1 | 218 to 224 | – | – | – |
| CC1(C)CCCNC1c1ccc(O)c(C(=O)c2ccc(C(=O)N[C@@H]3CCCNC[C@H]3NC(=O)c3ccncc3)cc2)c1F.Cl (stereo partly drawn) | 265 | – | – | – |
| COc1ccc(O)c(C(=O)c2ccc(C(=O)N[C@@H]3CCCNC[C@H]3NC(=O)c3ccnc(N)c3)cc2)c1F.Cl | 223 to 241 | – | – | – |
| Cl.O=C(N[C@@H]1CCCNC[C@H]1NC(=O)c1ccncc1)c1ccc(C(=O)c2c(O)ccc3c2OCCO3)cc1 | 230 to 240 | – | – | – |
| COc1ccc(O)c(C(=O)c2ccc(C(=O)N[C@@H]3CCCNC[C@H]3NC(=O)c3ccncn3)cc2)c1F.Cl | 256 to 265 | – | – | – |
| Cc1cccc(C(=O)c2ccc(C(=O)N[C@@H]3CCCNC[C@H]3NC(=O)c3ccncc3)cc2)c1.Cl | 190 to 196 | – | – | – |
| Cl.O=C(N[C@@H]1CCCNC[C@H]1NC(=O)c1ccncc1)c1ccc(C(=O)c2cc(O)ccc2O)cc1 | 108 to 114 | – | – | – |
| CC(C)Oc1ccc(O)c(C(=O)c2ccc(C(=O)N[C@@H]3CCCNC[C@H]3NC(=O)c3ccncc3)cc2)c1.Cl | 243 to 249 | – | – | – |
| Cl.NCc1ccc(O)c(C(=O)c2ccc(C(=O)N[C@@H]3CCCNC[C@H]3NC(=O)c3ccncc3)cc2)c1 | 215 to 218 | – | – | – |
| Cl.O=C(N[C@@H]1CCCNC[C@H]1NC(=O)c1ccncc1)c1ccc(C(=O)c2cc(C3CCCCN3)ccc2O)cc1 (stereo partly drawn) | 195 to 210 | – | – | – |
| CC1(C)CCCN(c2ccc(O)c(C(=O)c3ccc(C(=O)N[C@@H]4CCCNC[C@H]4NC(=O)c4ccncc4)cc3)c2)C1.Cl | 194 to 198 | – | – | – |
| CC1(C)CCN(c2ccc(O)c(C(=O)c3ccc(C(=O)N[C@@H]4CCCNC[C@H]4NC(=O)c4ccncc4)cc3)c2)CC1.Cl | 229 to 234 | – | – | – |
| CC(C)Nc1ccc(O)c(C(=O)c2ccc(C(=O)N[C@@H]3CCCNC[C@H]3NC(=O)c3ccncc3)cc2)c1.Cl | 227 to 230 | – | – | – |
| Cc1cc(C(=O)c2ccc(C(=O)N[C@@H]3CCCNC[C@H]3NC(=O)c3ccncc3)cc2)c(O)cn1.Cl | 203 to 208 | – | – | – |
| COc1ccc(O)c(C(=O)c2ccc(C(=O)N[C@@H]3CCCNC[C@H]3NC(=O)c3ccc(O)cc3)cc2)c1F.Cl | 190 to 196 | – | – | – |
| CN(C)c1ccc(O)c(C(=O)c2ccc(C(=O)N[C@@H]3CCCNC[C@H]3NC(=O)c3ccc(O)cc3)cc2)c1.Cl | 203 to 206 | – | – | – |
| COc1ccc(O)c(C(=O)c2ccc(C(=O)N[C@@H]3CCCNC[C@H]3NC(=O)c3cc(C)c(O)c(C)c3)cc2)c1F.Cl | 180 to 183 | – | – | – |
| Cc1cc(C(=O)N[C@@H]2CNCCC[C@H]2NC(=O)c2ccc(C(=O)c3cc(N(C)C)ccc3O)cc2)cc(C)c1O.Cl | 217 to 219 | – | – | – |
| Cl.O=C(N[C@@H]1CCCNC[C@H]1NC(=O)c1ccncc1)c1ccc(C(=O)c2c(O)cc3cccnc3c2F)cc1 | 247 to 251 | – | – | – |
| COc1ccc(O)c(C(=O)c2ccc(C(=O)N[C@@H]3CCCNC[C@H]3NC(=O)c3ccncc3)cc2)c1F.Cl [Example 1a, N-{(3R, 4R)-4-[4-(2-Fluoro-6-hydroxy-3-methoxy-benzoyl)-benzoylamino]-azepan-3-yl}-isonicotinamide hydrochloride] | 200 to 222 | 6.2 | – | – |
| Cc1ccc(O)c(C(=O)c2ccc(C(=O)N[C@@H]3CCCNC[C@H]3NC(=O)c3ccncc3)cc2)c1F.Cl [Example 2-1, N-{(3R,4R)-4-[4-(2-Fluoro-6-hydroxy-3-methyl-benzoyl)-benzoylamino]-azepan-3-yl}-isonicotinamide hydrochloride] | 181 to 184 | 21.9 | 7 | 3000 |
| CSc1ccc(O)c(C(=O)c2ccc(C(=O)N[C@@H]3CCCNC[C@H]3NC(=O)c3ccncc3)cc2)c1.Cl [Example 2-2, N-{(3R,4R)-4-[4-(6-Hydroxy-3-methylsulfanyl-benzoyl)-benzoylamino]-azepan-3-yl}-isonicotinamide hydrochloride] | 183 to 185 | 26.9 | 11 | 1500 |
| COc1ccc(O)c(C(=O)c2ccc(C(=O)N[C@@H]3CCCNC[C@H]3NC(=O)c3ccncc3)cc2)c1OC.Cl [Example 2-4, N-{(3R,4R)-4-[4-(6-Hydroxy-2,3-dimethoxy-benzoyl)-benzoylamino]-azepan-3-yl}-isonicotinamide hydrochloride] | 185 to 193 | – | 116 | > 24000 |
| COc1ccc(O)c(C(=O)c2ccc(C(=O)N[C@@H]3CCCNC[C@H]3NC(=O)c3ccncc3)cc2)c1.Cl [Example 2-5, N-{(3R,4R)-4-[4-(2-Hydroxy-5-methoxy-benzoyl)-benzoylamino]-azepan-3-yl}-isonicotinamide hydrochloride] | 230 to 240 | – | 15 | 2000 |
| Cc1ccc(O)c(C(=O)c2ccc(C(=O)N[C@@H]3CCCNC[C@H]3NC(=O)c3ccncc3)cc2)c1.Cl [Example 2-6, N-{(3R,4R)-4-[4-(2-Hydroxy-5-methyl-benzoyl)-benzoylamino]-azepan-3-yl}-isonicotinamide hydrochloride] | 215 to 219 | – | 16 | 1000 |
